Drawing on BindingDB's records for doi:10.1021/acs.jmedchem.5b00865 (A.V. Bogatsky Physico-Chemical Institute of The National …, 2015), this text covers IC50 for seven compounds.

Test [1] deals with Integrin alpha-IIb/beta-3 (Homo sapiens). The test is described as follows: Antagonist activity against integrin alpha2bbeta3 closed form in human platelet rich plasma assessed as inhibition of ADP-induced platelet aggregation.
Test [2] shares this target. The test is described as follows: Antagonist activity against integrin alpha2bbeta3 open form in human platelet rich plasma assessed as inhibition of ADP-induced platelet aggregation.

As to `O=C(Nc1ccc2nc(N3CCNCC3)[nH]c(=O)c2c1)C1CCNCC1`, the IC50 (commonly the concentration needed to halve the response being measured) in test [1] is 100 nM.
With `NCCCC(=O)Nc1ccc2nc(N3CCNCC3)[nH]c(=O)c2c1`, the IC50 in test [1] came to 11 nM.
On the same count and under the same terms, then `NCCC(=O)Nc1ccc2nc(N3CCNCC3)[nH]c(=O)c2c1`, with 150 nM.
With `O=C(CCNC(=O)c1ccc2c(c1)CNCC2)NC[C@@H](NS(=O)(=O)c1ccccc1)C(=O)O`, the IC50 in test [2] stood at 25 nM.
On the same count and under the same terms, next, `O=C(CCNC(=O)c1ccc2c(c1)CNCC2)NC[C@H](NS(=O)(=O)c1ccccc1)C(=O)O`: 6.2 nM; `CCCCS(=O)(=O)N[C@H](CNC(=O)CCNC(=O)c1ccc2c(c1)CNCC2)C(=O)O`: 670 nM; `CCCCS(=O)(=O)N[C@@H](CNC(=O)CCNC(=O)c1ccc2c(c1)CNCC2)C(=O)O`: 320 nM.
